According to patent US20130253022A1 (FOX CHASE CHEMICAL DIVERSITY CENTER, INC., priority 2010, published 2013):

Key:
[1] = tested on: Hippocampal Cultures; assay: Neuroprotection from heavy metal toxicity, propidium iodide assay; format: cell-based; details: Rattus norvegicus, read-out: Neuroprotection EC50 PI
Source text: All compounds were screened with dissociated hippocampal cultures derived from embryonic day 18 rats as the primary test system. With this preparation, primary neurons were used to test for prevention of heavy metal toxicity by the disclosed compounds. In brief, hippocampal tissue was obtained commercially through Brain Bits (Springfield, Ill.) and cultures prepared as previously described (Brewer, G. J. Serum-free B27/neurobasal medium supports differentiated growth of neurons from the striatum, substantia nigra, septum, cerebral cortex, cerebellum and dentate gyms, J. Neurosci. Res., 1995, 42, 674-683). The hippocampal neurons were platted at low density (10,000 cell/well) in a 96-well format and maintained in serum-free medium consisting of Neurobasal Medium supplemented with B27 and GlutaMAX (Gibco). Pre-coated poly-L-lysine coated plates are used because of the preferential adherence and survival of hippocampal neurons on this matrix support. Heavy metal toxicity is associated with the occurrence of seizures ([…] et al. Zinc and copper: pharmacological probes and endogenous modulators of neuronal excitability. Pharmacol. Ther. 2006, 111, 567-583). Therefore, the heavy metal toxicity studies serve as another example of the oxidative stress that the disclosed compounds have a protection action against. To establish the dose-dependency of test agents, day 18 hippocampal cultures were utilized to study the toxicity produced after treatment with the heavy metals and neuroprotection after treatment with test compounds. Serving as examples of heavy metal salts for these studies are the following: […] Prior to treatment, the B27/Neural Basal media of the cultures were replaced with B27 neural basal medium without antioxidants for 18 hours. […] Further, the removal of antioxidants in the medium was performed to obtain a significant and reproducible toxic signal for heavy metal treatment of the hippocampal neurons. At the conclusion of the 4 hour test period, the cultures are also tested for the amount of cell death as measured by the propidium iodide method. […] After removal of the growth medium, 50 μl of the 50 μM PI solution is added to cultures and allowed to incubate in the dark at room temperature for 15 min. The cultures are then assessed for fluorescence intensity at Ex536/Em590 nm in a CytoFluor fluorimeter. Results are expressed in relative fluorescent units. […] The test compound is added to the hippocampal cultures at concentrations that range from […] to […]. The incubation period is for four hours followed by the measurement of fluorescence at Ex536/Em590 nm in a CytoFluor fluorimeter. Results are expressed in relative fluorescent units. Background fluorescence was subtracted from values obtained from wells without cells.

[2] = tested on: Hippocampal Cultures; assay: Neuroprotection from heavy metal toxicity, CFDA assay; format: cell-based, rat; details: for EC50: Rattus norvegicus
Source text: All compounds were screened with dissociated hippocampal cultures derived from embryonic day 18 rats as the primary test system. With this preparation, primary neurons were used to test for prevention of heavy metal toxicity by the disclosed compounds. In brief, hippocampal tissue was obtained commercially through Brain Bits (Springfield, Ill.) and cultures prepared as previously described (Brewer, G. J. Serum-free B27/neurobasal medium supports differentiated growth of neurons from the striatum, substantia nigra, septum, cerebral cortex, cerebellum and dentate gyms, J. Neurosci. Res., 1995, 42, 674-683). The hippocampal neurons were platted at low density (10,000 cell/well) in a 96-well format and maintained in serum-free medium consisting of Neurobasal Medium supplemented with B27 and GlutaMAX (Gibco). Pre-coated poly-L-lysine coated plates are used because of the preferential adherence and survival of hippocampal neurons on this matrix support. Heavy metal toxicity is associated with the occurrence of seizures ([…] et al. Zinc and copper: pharmacological probes and endogenous modulators of neuronal excitability. Pharmacol. Ther. 2006, 111, 567-583). Therefore, the heavy metal toxicity studies serve as another example of the oxidative stress that the disclosed compounds have a protection action against. To establish the dose-dependency of test agents, day 18 hippocampal cultures were utilized to study the toxicity produced after treatment with the heavy metals and neuroprotection after treatment with test compounds. Serving as examples of heavy metal salts for these studies are the following: […] Prior to treatment, the B27/Neural Basal media of the cultures were replaced with B27 neural basal medium without antioxidants for 18 hours. […] Further, the removal of antioxidants in the medium was performed to obtain a significant and reproducible toxic signal for heavy metal treatment of the hippocampal neurons. Toxicity produced by heavy metals is measured by decreases in neuronal viability. Carboxyfluorescein (CFDA) was used a vital stain for all cell toxicity and neuroprotection studies. With the use of the CytoFluor fluorimeter, the CFDA assay was employed to assess the viability of neurons. CFDA is a dye that becomes fluorescent upon cell entry and cleavage by cytosolic esterases (Petroski and Geller. Selective labeling of embryonic neurons cultures on astrocyte monolayers with 5(6)-carboxyfluorescein diacetate [CFDA]. J. Neurosci. Methods 1994, 52, 23-32). Neuronal specificity is obtained relative to astrocytes because the cleaved dye is extruded extracellularlly by glia with time, while dye in neurons remains intracellular. Dose responses to the various heavy metal salts determined the minimal concentration that produced the maximum amount of toxicity. […] All test compounds are dissolved to 10 mM in Dulbecco's phosphate buffered saline (DPBS; Sigma: D-5780) prior to testing. To test for neuroprotection from a heavy metal toxicity, day 11 hippocampal cultures are given a complete change of medium containing 100 μl of Neurobasal medium with B27 that contain no antioxidants. Twenty-four hours after the change in medium, the heavy metal neuroprotection studies are started. […] At the conclusion of the 4 hour incubation period, the dye is removed from the cultures and washed once with 100 μl of DPBS. After removal of the first wash, a second wash of DPBS is added to the culture and then incubated for 30 min to allow the efflux of dye out of glia in the cultures. At the conclusion of the 30 min efflux period, the culture efflux medium is removed and 100 μl of 0.1% triton-X100 in water is added to the cultures before reading at Ex490/Em517 in a CytoFluor fluorimeter. Results are expressed in relative fluorescent units (RFU) and EC50's calculated from the dose response of the test compound.

[3] = Cobalt Chloride hexahydrate 10 μM
[4] = Copper Acetate monohydrate 10 μM
[5] = Nickel Chloride hexahydrate 10 μM

Q: Which results are given for `NS(=O)(=O)NCC(F)(F)c1ccccc1F` [Example 1, 2,2-Difluoro-2-(2-fluorophenyl)-ethyl-1-sulfamide]?
A: EC50 [1, 3]: 0.1 nM; EC50 [1, 4]: 0.1 nM; EC50 ([1]; Iron sulfate hexahydrate 10 μM): 0.01 nM; EC50 [1, 5]: 0.1 nM; EC50 ([1]; Zinc Acetate dehydrate 1 μM): 0.01 nM; EC50 [2, 3]: 100 nM; EC50 [2, 4]: 0.1 nM; EC50 ([2]; Iron sulfate hexahydrate 10 μM): 1 nM; EC50 [2, 5]: 10 nM; EC50 ([2]; Zinc Acetate dehydrate 1 μM): 0.1 nM; Prevention of toxicity of 5 heavy metals ([2]; five heavy metal salts at the Table 3 concentrations, CFDA and PI assays): prevented the toxicity of 5 heavy metals
